Source: ChEMBL document CHEMBL3525983, “Pharmacokinetics, metabolism, and disposition of rivoglitazone, a novel peroxisome proliferator-activated receptor γ agonist, in rats and monkeys” (Drug Metab Dispos, 2011)

Tests used:
[1] = Terminal elimination half life in monkey at 0.493 mg/kg, po administered via gavage by LC-MS/MS analysis; assay type: ADME, organism-based, Macaca mulatta; parameters: dose 0.493 mg/kg, dosed compound name [14C]Rivoglitazone, route oral; conditions: rhesus monkey, in vivo, read-out: beta t1/2 (converted)
[2] = Apparent total clearance in F344/DuCrlCrlj rat at 0.1 mg/kg, po administered via gavage by LC-MS/MS analysis; assay type: ADME, organism-based; parameters: dose 0.1 mg/kg, dosed compound name [14C]Rivoglitazone, route oral; conditions: in vivo, read-out: CLt/F
[3] = AUC (0 to t) in monkey at 0.0986 mg/kg, po administered via gavage by LC-MS/MS analysis; assay type: ADME, organism-based, Macaca mulatta; parameters: dose 0.0986 mg/kg, dosed compound name [14C]Rivoglitazone, route oral; conditions: rhesus monkey, plasma
[4] = Tmax in monkey at 0.0986 mg/kg, po administered via gavage by LC-MS/MS analysis; assay type: ADME, organism-based, Macaca mulatta; parameters: dose 0.0986 mg/kg, dosed compound name [14C]Rivoglitazone, route oral; conditions: rhesus monkey, in vivo
[5] = Oral bioavailability in monkey at 0.0986 mg/kg administered via gavage by LC-MS/MS analysis; assay type: ADME, organism-based, Macaca mulatta; parameters: dosed compound name [14C]Rivoglitazone; conditions: rhesus monkey, in vivo
[6] = AUC (0 to t) in monkey at 0.986 mg/kg, iv administered via tail vein by LC-MS/MS analysis; assay type: ADME, organism-based, Macaca mulatta; parameters: dose 0.986 mg/kg, dosed compound name [14C]Rivoglitazone, route intravenous; conditions: rhesus monkey, plasma
[7] = Drug excretion in monkey urine/feces assessed as unchanged compound at 1 mg/kg, po administered via gavage measured during 0 to 72 hrs by radio-HPLC analysis; assay type: ADME, organism-based, Macaca mulatta; parameters: dose 1 mg/kg, dosed compound name [14C]Rivoglitazone, route oral; conditions: rhesus monkey, urine and feces, read-out: Compound recovery
[8] = Cmax in F344/DuCrlCrlj rat at 0.1 mg/kg, po administered via gavage by LC-MS/MS analysis; assay type: ADME, organism-based; parameters: dose 0.1 mg/kg, dosed compound name [14C]Rivoglitazone, route oral; conditions: in vivo
[9] = AUC (0 to infinity) in F344/DuCrlCrlj rat at 0.5 mg/kg, po administered via gavage by LC-MS/MS analysis; assay type: ADME, organism-based; parameters: time infinity, dose 0.5 mg/kg, dosed compound name [14C]Rivoglitazone, route oral; conditions: plasma
[10] = Cmax in monkey at 0.0986 mg/kg, po administered via gavage by LC-MS/MS analysis; assay type: ADME, organism-based, Macaca mulatta; parameters: dose 0.0986 mg/kg, dosed compound name [14C]Rivoglitazone, route oral; conditions: rhesus monkey, in vivo
[11] = Volume of distribution at steady state in monkey at 0.493 mg/kg, iv administered via tail vein by LC-MS/MS analysis; assay type: ADME, organism-based, Macaca mulatta; parameters: dose 0.493 mg/kg, dosed compound name [14C]Rivoglitazone, route intravenous; conditions: rhesus monkey, in vivo, read-out: Vdss
[12] = AUC (0 to t) in monkey at 0.0986 mg/kg, iv administered via tail vein by LC-MS/MS analysis; assay type: ADME, organism-based, Macaca mulatta; parameters: dose 0.0986 mg/kg, dosed compound name [14C]Rivoglitazone, route intravenous; conditions: rhesus monkey, plasma
[13] = AUC (0 to infinity) in monkey at 0.0986 mg/kg, iv administered via tail vein by LC-MS/MS analysis; assay type: ADME, organism-based, Macaca mulatta; parameters: time infinity, dose 0.0986 mg/kg, dosed compound name [14C]Rivoglitazone, route intravenous; conditions: rhesus monkey, plasma
[14] = Drug excretion in bile duct-cannulated rat feces assessed as unchanged compound level administered through intravenous by radio-HPLC analysis; assay type: ADME; parameters: dosed compound name [14C]Rivoglitazone; conditions: read-out: Compound recovery
[15] = Apparent total clearance in monkey at 0.493 mg/kg, po administered via gavage by LC-MS/MS analysis; assay type: ADME, organism-based, Macaca mulatta; parameters: dose 0.493 mg/kg, dosed compound name [14C]Rivoglitazone, route oral; conditions: rhesus monkey, in vivo, read-out: CLt/F
[16] = Total clearance in monkey at 0.986 mg/kg, iv administered via tail vein by LC-MS/MS analysis; assay type: ADME, organism-based, Macaca mulatta; parameters: dose 0.986 mg/kg, dosed compound name [14C]Rivoglitazone, route intravenous; conditions: rhesus monkey, in vivo
[17] = AUC (0 to t) in F344/DuCrlCrlj rat at 0.5 mg/kg, iv administered via tail vein by LC-MS/MS analysis; assay type: ADME, organism-based; parameters: dose 0.5 mg/kg, dosed compound name [14C]Rivoglitazone, route intravenous; conditions: plasma
[18] = AUC (0 to infinity) in F344/DuCrlCrlj rat at 0.1 mg/kg, iv administered via tail vein by LC-MS/MS analysis; assay type: ADME, organism-based; parameters: time infinity, dose 0.1 mg/kg, dosed compound name [14C]Rivoglitazone, route intravenous; conditions: plasma
[19] = Drug excretion in monkey urine assessed as unchanged compound at 1 mg/kg, po administered via gavage measured during 0 to 72 hrs by radio-HPLC analysis; assay type: ADME, organism-based, Macaca mulatta; parameters: dose 1 mg/kg, dosed compound name [14C]Rivoglitazone, route oral; conditions: rhesus monkey, read-out: Compound recovery
Rattus norvegicus = assay: Drug uptake in F344/DuCrlCrlj rat plasma assessed as unchanged compound at 1 to 5 mg/kg, po administered as single dose via gavage by LC-MS/MS analysis; assay type: ADME, organism-based; parameters: dose 1-5 mg/kg, dosed compound name [14C]Rivoglitazone, route oral; conditions: in vivo
[20] = Total clearance in monkey at 0.0986 mg/kg, iv administered via tail vein by LC-MS/MS analysis; assay type: ADME, organism-based, Macaca mulatta; parameters: dose 0.0986 mg/kg, dosed compound name [14C]Rivoglitazone, route intravenous; conditions: rhesus monkey, in vivo
[21] = Terminal elimination half life in F344/DuCrlCrlj rat at 0.1 mg/kg, iv administered via tail vein by LC-MS/MS analysis; assay type: ADME, organism-based; parameters: dose 0.1 mg/kg, dosed compound name [14C]Rivoglitazone, route intravenous; conditions: in vivo, read-out: beta t1/2 (converted)
[22] = Oral bioavailability in F344/DuCrlCrlj rat at 0.1 mg/kg administered via gavage by LC-MS/MS analysis; assay type: ADME, organism-based; parameters: dosed compound name [14C]Rivoglitazone; conditions: in vivo
[23] = Cmax in monkey at 0.493 mg/kg, po administered via gavage by LC-MS/MS analysis; assay type: ADME, organism-based, Macaca mulatta; parameters: dose 0.493 mg/kg, dosed compound name [14C]Rivoglitazone, route oral; conditions: rhesus monkey, in vivo
[24] = Terminal elimination half life in F344/DuCrlCrlj rat at 0.1 mg/kg, po administered via gavage by LC-MS/MS analysis; assay type: ADME, organism-based; parameters: dose 0.1 mg/kg, dosed compound name [14C]Rivoglitazone, route oral; conditions: in vivo, read-out: beta t1/2 (converted)
[25] = AUC (0 to infinity) in monkey at 0.986 mg/kg, po administered via gavage by LC-MS/MS analysis; assay type: ADME, organism-based, Macaca mulatta; parameters: time infinity, dose 0.986 mg/kg, dosed compound name [14C]Rivoglitazone, route oral; conditions: rhesus monkey, plasma
[26] = Tmax in monkey at 0.493 mg/kg, po administered via gavage by LC-MS/MS analysis; assay type: ADME, organism-based, Macaca mulatta; parameters: dose 0.493 mg/kg, dosed compound name [14C]Rivoglitazone, route oral; conditions: rhesus monkey, in vivo
[27] = Total clearance in F344/DuCrlCrlj rat at 0.1 mg/kg, iv administered via tail vein by LC-MS/MS analysis; assay type: ADME, organism-based; parameters: dose 0.1 mg/kg, dosed compound name [14C]Rivoglitazone, route intravenous; conditions: in vivo
Plasma = assay: Drug metabolism in F344/DuCrlCrlj rat plasma assessed as 2-((4-((2,4-dioxothiazolidin-5-yl)methyl)phenoxy)methyl)-1-methyl-1H-benzo[d]imidazol-6-yl hydrogen sulfate formation at 1 to 5 mg/kg, po administered as single dose via gavage by LC-MS/MS analysis; assay type: ADME, organism-based; parameters: dose 1-5 mg/kg, dosed compound name [14C]Rivoglitazone, route oral; conditions: in vivo
[28] = Terminal elimination half life in monkey at 0.986 mg/kg, iv administered via tail vein by LC-MS/MS analysis; assay type: ADME, organism-based, Macaca mulatta; parameters: dose 0.986 mg/kg, dosed compound name [14C]Rivoglitazone, route intravenous; conditions: rhesus monkey, in vivo, read-out: beta t1/2 (converted)
[29] = Cmax in F344/DuCrlCrlj rat at 0.5 mg/kg, po administered via gavage by LC-MS/MS analysis; assay type: ADME, organism-based; parameters: dose 0.5 mg/kg, dosed compound name [14C]Rivoglitazone, route oral; conditions: in vivo
[30] = Terminal elimination half life in monkey at 0.0986 mg/kg, po administered via gavage by LC-MS/MS analysis; assay type: ADME, organism-based, Macaca mulatta; parameters: dose 0.0986 mg/kg, dosed compound name [14C]Rivoglitazone, route oral; conditions: rhesus monkey, in vivo, read-out: beta t1/2 (converted)
[31] = Terminal elimination half life in F344/DuCrlCrlj rat at 0.5 mg/kg, po administered via gavage by LC-MS/MS analysis; assay type: ADME, organism-based; parameters: dose 0.5 mg/kg, dosed compound name [14C]Rivoglitazone, route oral; conditions: in vivo, read-out: beta t1/2 (converted)
[32] = Volume of distribution at steady state in F344/DuCrlCrlj rat at 0.1 mg/kg, iv administered via tail vein by LC-MS/MS analysis; assay type: ADME, organism-based; parameters: dose 0.1 mg/kg, dosed compound name [14C]Rivoglitazone, route intravenous; conditions: in vivo, read-out: Vdss
[33] = Drug excretion in F344/DuCrlCrlj rat feces assessed as unchanged compound at 1 mg/kg, po administered via gavage measured during 0 to 48 hrs by radio-HPLC analysis; assay type: ADME, organism-based; parameters: dose 1 mg/kg, dosed compound name [14C]Rivoglitazone, route oral; conditions: read-out: Compound recovery
[34] = AUC (0 to infinity) in F344/DuCrlCrlj rat at 0.1 mg/kg, po administered via gavage by LC-MS/MS analysis; assay type: ADME, organism-based; parameters: time infinity, dose 0.1 mg/kg, dosed compound name [14C]Rivoglitazone, route oral; conditions: plasma
[35] = AUC (0 to infinity) in monkey at 0.986 mg/kg, iv administered via tail vein by LC-MS/MS analysis; assay type: ADME, organism-based, Macaca mulatta; parameters: time infinity, dose 0.986 mg/kg, dosed compound name [14C]Rivoglitazone, route intravenous; conditions: rhesus monkey, plasma
[36] = AUC (0 to t) in monkey at 0.493 mg/kg, iv administered via tail vein by LC-MS/MS analysis; assay type: ADME, organism-based, Macaca mulatta; parameters: dose 0.493 mg/kg, dosed compound name [14C]Rivoglitazone, route intravenous; conditions: rhesus monkey, plasma
[37] = AUC (0 to infinity) in monkey at 0.493 mg/kg, po administered via gavage by LC-MS/MS analysis; assay type: ADME, organism-based, Macaca mulatta; parameters: time infinity, dose 0.493 mg/kg, dosed compound name [14C]Rivoglitazone, route oral; conditions: rhesus monkey, plasma
[38] = AUC (0 to t) in F344/DuCrlCrlj rat at 0.1 mg/kg, iv administered via tail vein by LC-MS/MS analysis; assay type: ADME, organism-based; parameters: dose 0.1 mg/kg, dosed compound name [14C]Rivoglitazone, route intravenous; conditions: plasma
[39] = Tmax in monkey at 0.986 mg/kg, po administered via gavage by LC-MS/MS analysis; assay type: ADME, organism-based, Macaca mulatta; parameters: dose 0.986 mg/kg, dosed compound name [14C]Rivoglitazone, route oral; conditions: rhesus monkey, in vivo

Question: What does the source list for COc1ccc2nc(COc3ccc(CC4SC(=O)NC4=O)cc3)n(C)c2c1.Cl (racemic)?
Answer: half-life [1]: 7.56 h; CL/F [2]: 0.354 mL/min/kg; AUC(0-t) [3]: 3440 ng·h/mL; Tmax [4]: 3 h; bioavailability [5]: 106%; AUC(0-t) [6]: 51700 ng·h/mL; dose excreted [7]: 23.8%; Cmax [8]: 409 ng/mL; AUC(0-inf) [9]: 21800 ng·h/mL; Cmax [10]: 242 ng/mL; Vd [11]: 0.155 L/kg; AUC(0-t) [12]: 3800 ng·h/mL; AUC(0-inf) [13]: 5000 ng·h/mL; dose excreted [14]: 2.3%; CL/F [15]: 0.485 mL/min/kg; clearance [16]: 0.31 mL/min/kg; AUC(0-t) [17]: 22300 ng·h/mL; AUC(0-inf) [18]: 4670 ng·h/mL; dose excreted [19]: 0.3%; Compound recovery (Rattus norvegicus): metabolite_detected; clearance [20]: 0.312 mL/min/kg; half-life [21]: 4.55 h; bioavailability [22]: 98.1%; Cmax [23]: 1330 ng/mL; half-life [24]: 4.35 h; AUC(0-inf) [25]: 43100 ng·h/mL; Tmax [26]: 4.25 h; clearance [27]: 0.329 mL/min/kg; Compound recovery (Plasma): metabolite_detected; half-life [28]: 6.79 h; Cmax [29]: 2090 ng/mL; half-life [30]: 8.33 h; half-life [31]: 4.98 h; Vd [32]: 0.125 L/kg; dose excreted [33]: 23.7%; AUC(0-inf) [34]: 4450 ng·h/mL; AUC(0-inf) [35]: 57200 ng·h/mL; AUC(0-t) [36]: 21700 ng·h/mL; AUC(0-inf) [37]: 17700 ng·h/mL; AUC(0-t) [38]: 4530 ng·h/mL; Tmax [39]: 3.5 h
